This note sets out measurements from ChEMBL document CHEMBL1144838, “Use of lantibiotic synthetases for the preparation of bioactive constrained peptides” (Bioorg Med Chem Lett, 2008).

The structures appear in SMILES notation. pKi: −log10 of the molar value. Non-standard residues stand in square brackets, D forms with d. Residues, ends and D or L forms follow the SMILES beside them. Dha = C=C(N)C(=O)O

One may read the pKi as the Ki on a negative log10 scale, so that one unit is a factor of ten.

For one experiment, the target named is Tripeptidyl-peptidase 2 (Homo sapiens, UniProt P29144). In words: Inhibition of human tripeptidyl peptidase2 from erythrocytes.
Experiment [1] is filed under the species Mus musculus. As to the kind of experiment: Agonist activity at mu opioid receptor in mouse model. In kind it is functional.
For experiment [2], the species on record is Mus musculus. As to the kind of experiment: Agonist activity at mouse delta opioid receptor in mouse model. In kind it is functional.

Chain of Tripeptidyl-peptidase 2 (P29144 whole entry): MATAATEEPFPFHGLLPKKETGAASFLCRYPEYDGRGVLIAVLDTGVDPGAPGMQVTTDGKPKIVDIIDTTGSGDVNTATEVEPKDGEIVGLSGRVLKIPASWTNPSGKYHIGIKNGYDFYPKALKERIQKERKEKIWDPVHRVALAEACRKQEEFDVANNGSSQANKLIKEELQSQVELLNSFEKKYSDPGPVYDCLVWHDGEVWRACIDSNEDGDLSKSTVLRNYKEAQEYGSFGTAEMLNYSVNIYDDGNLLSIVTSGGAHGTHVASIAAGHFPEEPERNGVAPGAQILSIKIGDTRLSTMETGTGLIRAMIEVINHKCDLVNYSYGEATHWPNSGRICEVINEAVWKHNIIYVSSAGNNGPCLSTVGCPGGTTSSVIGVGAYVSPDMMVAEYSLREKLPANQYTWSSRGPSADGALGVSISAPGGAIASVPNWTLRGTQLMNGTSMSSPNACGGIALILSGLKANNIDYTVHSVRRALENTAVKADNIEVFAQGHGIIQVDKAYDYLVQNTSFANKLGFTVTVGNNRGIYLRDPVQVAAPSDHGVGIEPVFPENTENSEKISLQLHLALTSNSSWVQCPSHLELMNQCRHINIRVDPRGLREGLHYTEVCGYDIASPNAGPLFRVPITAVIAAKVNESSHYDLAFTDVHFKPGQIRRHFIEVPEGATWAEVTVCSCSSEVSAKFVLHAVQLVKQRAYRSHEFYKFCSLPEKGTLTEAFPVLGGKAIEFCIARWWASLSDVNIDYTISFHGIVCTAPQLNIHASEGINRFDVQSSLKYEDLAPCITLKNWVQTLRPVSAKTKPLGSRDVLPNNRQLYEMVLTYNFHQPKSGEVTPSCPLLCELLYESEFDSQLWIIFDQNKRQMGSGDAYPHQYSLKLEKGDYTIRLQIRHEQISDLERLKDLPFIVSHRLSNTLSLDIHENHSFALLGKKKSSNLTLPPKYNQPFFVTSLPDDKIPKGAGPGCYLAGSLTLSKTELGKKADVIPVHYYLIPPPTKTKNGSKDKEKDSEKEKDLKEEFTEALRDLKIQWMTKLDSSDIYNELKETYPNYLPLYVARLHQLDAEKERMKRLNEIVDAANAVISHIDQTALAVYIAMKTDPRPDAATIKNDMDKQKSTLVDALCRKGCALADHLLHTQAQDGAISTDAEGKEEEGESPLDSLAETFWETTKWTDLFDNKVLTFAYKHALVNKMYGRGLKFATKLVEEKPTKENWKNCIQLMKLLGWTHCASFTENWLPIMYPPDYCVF

At Tripeptidyl-peptidase 2, `C=C(NC(=O)[C@H](C)NC(=O)[C@@H](N)CCCNC(=N)N)C(=O)N[C@H](C(=O)N[C@@H](C)C(=O)O)C(C)C` (H-RA[Dha]VA-OH) gave a pKi of 7.70.
Regarding `CN1CC[C@]23c4c5ccc(O)c4O[C@H]2[C@@H](O)C=C[C@H]3[C@H]1C5` [MORPHINE], the ED50 in the experiment filed under Mus musculus [1] and in the experiment listed under Mus musculus [2] was 15 nM in each case.
As to `N[C@@H](Cc1ccc(O)cc1)C(=O)N[C@@H]1CSC[C@@H](C(=O)O)NC(=O)[C@H](Cc2ccccc2)NC(=O)CNC1=O`, the ED50 in the experiment filed under Mus musculus [1] and in the experiment listed under Mus musculus [2] was 0.0018 nM each time.
